ChEMBL document CHEMBL4229524, “Design, synthesis and preclinical evaluation of 5-methyl-N4-aryl-furo[2,3-d]pyrimidines as single agents with combination chemotherapy potential” (Bioorg Med Chem Lett, 2018)

Tests used:
[1] = Antiproliferative activity against human wild-type Hela-beta3 cells after 72 hrs by sulforhodamine B assay; type: functional
[2] = tested on: SK-OV-3; experiment: Antiproliferative activity against human SKOV3 cells after 72 hrs by sulforhodamine B assay; type: functional, cell-based; conditions: SK-OV-3, 72 h
[3] = tested on: A10; experiment: Induction of microtubule depolymerization in rat A10 cells after 18 hrs by indirect immunofluorescence method; type: functional, cell-based; conditions: A10, 18 h
[4] = Resistance index, ratio of IC50 for human SKOV3-MDR1-M6/6 cells to IC50 for human SKOV3 cells; type: functional
[5] = tested on: A-431; experiment: Cytotoxicity against human A431 cells over-expressing EGFR; type: functional, cell-based
[6] = tested on: MDA-MB-435; experiment: Antiproliferative activity against human MDA-MB-435 cells after 72 hrs by sulforhodamine B assay; type: functional, cell-based; conditions: MDA-MB-435, 72 h
[7] = tested on: HeLa; experiment: Antiproliferative activity against human HeLa cells after 72 hrs by sulforhodamine B assay; type: functional, cell-based
[8] = Inhibition of bovine brain tubulin assembly pretreated for 15 mins followed by GTP addition by spectrophotometric method; design: species or system Bos taurus
[9] = Resistance index, ratio of IC50 for human HeLa cells to IC50 for human wild-type Hela-beta3 cells; type: functional
[10] = species on record: Bos taurus; experiment: Inhibition of [3H]colchicine binding to bovine brain tubulin at 5 uM measured after 10 mins relative to control
[11] = target: Platelet-derived growth factor receptor beta (Homo sapiens, UniProt P09619); experiment: Inhibition of PDGF-BB-induced PDGFRbeta activation in human SH-SY5Y cells pretreated for 60 mins followed by PDGF-BB addition and measured after 10 mins by ELISA; type: cell-based
Chain of Platelet-derived growth factor receptor beta (P09619 whole entry): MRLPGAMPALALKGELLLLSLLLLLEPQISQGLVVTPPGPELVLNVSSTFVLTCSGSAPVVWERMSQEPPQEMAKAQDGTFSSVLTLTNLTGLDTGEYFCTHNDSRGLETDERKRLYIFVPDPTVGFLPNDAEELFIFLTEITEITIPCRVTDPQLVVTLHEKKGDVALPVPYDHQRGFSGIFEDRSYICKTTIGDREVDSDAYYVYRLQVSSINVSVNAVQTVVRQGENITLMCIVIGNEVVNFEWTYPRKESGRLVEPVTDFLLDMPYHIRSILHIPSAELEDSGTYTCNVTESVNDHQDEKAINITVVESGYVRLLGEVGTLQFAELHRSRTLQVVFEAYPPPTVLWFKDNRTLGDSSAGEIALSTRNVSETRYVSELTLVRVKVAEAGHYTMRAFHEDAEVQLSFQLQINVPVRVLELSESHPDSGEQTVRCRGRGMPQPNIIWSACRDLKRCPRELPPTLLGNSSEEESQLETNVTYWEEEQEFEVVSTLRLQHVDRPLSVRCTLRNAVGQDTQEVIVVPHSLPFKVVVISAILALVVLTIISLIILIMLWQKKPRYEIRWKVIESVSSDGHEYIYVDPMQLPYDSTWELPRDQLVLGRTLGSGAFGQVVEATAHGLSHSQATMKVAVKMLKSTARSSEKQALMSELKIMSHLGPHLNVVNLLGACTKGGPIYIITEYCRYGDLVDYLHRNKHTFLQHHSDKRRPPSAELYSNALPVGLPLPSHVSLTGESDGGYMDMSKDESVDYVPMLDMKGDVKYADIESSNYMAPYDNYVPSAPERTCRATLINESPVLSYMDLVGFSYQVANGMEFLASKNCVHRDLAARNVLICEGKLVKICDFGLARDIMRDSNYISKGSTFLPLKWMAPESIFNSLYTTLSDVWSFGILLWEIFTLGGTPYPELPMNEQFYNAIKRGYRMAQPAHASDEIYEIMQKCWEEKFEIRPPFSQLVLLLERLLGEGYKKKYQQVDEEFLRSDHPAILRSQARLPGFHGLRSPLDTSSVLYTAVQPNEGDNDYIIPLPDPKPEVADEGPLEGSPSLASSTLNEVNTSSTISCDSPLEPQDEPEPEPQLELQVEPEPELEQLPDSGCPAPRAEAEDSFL

[12] = target: Epidermal growth factor receptor (Homo sapiens, UniProt P00533); type: cell-based
Chain of Epidermal growth factor receptor (P00533 whole entry): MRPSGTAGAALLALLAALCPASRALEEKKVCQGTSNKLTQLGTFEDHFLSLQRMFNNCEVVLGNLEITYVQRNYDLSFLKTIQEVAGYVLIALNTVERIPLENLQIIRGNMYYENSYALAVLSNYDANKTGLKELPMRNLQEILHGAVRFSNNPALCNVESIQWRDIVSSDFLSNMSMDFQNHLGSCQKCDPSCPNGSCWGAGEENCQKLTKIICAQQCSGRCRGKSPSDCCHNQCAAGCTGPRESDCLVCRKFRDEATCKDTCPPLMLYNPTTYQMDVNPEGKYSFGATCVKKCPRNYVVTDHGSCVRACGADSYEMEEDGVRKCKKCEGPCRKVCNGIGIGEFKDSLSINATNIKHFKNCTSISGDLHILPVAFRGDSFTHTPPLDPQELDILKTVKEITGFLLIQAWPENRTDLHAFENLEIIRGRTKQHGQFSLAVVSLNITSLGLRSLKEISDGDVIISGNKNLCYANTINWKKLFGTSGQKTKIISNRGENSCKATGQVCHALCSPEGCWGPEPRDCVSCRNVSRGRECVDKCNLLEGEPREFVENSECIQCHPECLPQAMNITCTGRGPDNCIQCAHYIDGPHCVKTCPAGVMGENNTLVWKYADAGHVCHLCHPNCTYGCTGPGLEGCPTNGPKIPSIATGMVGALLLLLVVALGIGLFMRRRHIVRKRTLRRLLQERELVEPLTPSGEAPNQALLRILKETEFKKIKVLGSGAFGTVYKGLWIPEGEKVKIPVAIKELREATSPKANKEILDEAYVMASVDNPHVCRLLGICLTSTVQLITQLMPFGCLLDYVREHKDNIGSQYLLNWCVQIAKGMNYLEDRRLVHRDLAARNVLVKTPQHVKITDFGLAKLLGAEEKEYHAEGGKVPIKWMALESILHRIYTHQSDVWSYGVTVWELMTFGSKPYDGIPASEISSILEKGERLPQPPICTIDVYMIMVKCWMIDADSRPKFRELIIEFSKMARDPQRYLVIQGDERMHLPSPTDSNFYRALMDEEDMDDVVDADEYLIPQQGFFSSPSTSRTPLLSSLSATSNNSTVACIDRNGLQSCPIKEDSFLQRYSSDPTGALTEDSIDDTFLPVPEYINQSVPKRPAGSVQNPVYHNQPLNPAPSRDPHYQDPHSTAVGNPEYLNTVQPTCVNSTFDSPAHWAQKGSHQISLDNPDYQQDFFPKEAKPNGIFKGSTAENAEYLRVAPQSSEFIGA

[13] = Antiproliferative activity against human SKOV3-MDR1-M6/6 cells after 72 hrs by sulforhodamine B assay; type: functional; conditions: SKOV3-MDR1-M6/6, 72 h
[14] = species on record: Bos taurus; experiment: Inhibition of [3H]colchicine binding to bovine brain tubulin at 1 uM measured after 10 mins relative to control
[15] = target: Vascular endothelial growth factor receptor 2 (Homo sapiens, UniProt P35968); type: cell-based
Chain of Vascular endothelial growth factor receptor 2 (P35968 whole entry): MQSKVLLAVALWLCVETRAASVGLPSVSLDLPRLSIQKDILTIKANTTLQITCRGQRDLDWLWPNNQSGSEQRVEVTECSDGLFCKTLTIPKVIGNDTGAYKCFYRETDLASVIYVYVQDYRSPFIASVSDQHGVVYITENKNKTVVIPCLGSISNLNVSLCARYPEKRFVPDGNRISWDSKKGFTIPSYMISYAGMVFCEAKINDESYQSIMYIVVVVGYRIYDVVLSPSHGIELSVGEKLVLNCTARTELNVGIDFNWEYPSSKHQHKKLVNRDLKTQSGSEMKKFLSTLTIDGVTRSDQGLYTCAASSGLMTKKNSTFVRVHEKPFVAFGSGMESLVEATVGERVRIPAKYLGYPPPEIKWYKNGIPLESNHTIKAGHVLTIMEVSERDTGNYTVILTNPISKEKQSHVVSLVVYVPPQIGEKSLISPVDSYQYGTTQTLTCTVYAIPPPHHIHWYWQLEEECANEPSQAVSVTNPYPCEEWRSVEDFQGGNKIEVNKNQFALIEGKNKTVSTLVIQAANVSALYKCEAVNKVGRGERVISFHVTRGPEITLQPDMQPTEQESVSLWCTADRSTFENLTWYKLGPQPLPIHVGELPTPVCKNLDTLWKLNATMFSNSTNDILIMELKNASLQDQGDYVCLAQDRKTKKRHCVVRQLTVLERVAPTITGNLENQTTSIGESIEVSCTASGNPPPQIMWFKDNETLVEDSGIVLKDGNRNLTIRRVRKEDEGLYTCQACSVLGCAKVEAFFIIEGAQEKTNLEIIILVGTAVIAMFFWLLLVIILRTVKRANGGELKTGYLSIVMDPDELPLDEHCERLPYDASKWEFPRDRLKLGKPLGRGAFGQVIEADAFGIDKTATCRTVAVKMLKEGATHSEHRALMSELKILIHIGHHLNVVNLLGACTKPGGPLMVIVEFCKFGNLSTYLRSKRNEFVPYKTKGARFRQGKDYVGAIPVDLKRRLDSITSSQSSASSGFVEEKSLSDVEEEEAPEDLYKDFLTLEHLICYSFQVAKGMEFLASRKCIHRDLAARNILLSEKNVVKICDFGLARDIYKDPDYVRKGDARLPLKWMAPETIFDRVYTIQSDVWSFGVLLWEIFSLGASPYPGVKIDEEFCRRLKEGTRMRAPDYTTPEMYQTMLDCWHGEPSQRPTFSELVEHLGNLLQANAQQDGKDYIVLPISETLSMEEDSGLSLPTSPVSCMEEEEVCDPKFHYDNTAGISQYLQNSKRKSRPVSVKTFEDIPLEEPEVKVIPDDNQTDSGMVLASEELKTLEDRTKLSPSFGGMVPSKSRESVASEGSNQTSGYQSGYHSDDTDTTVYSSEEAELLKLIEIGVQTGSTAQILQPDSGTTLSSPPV

[16] = tested on: Chorioallantoic membrane; experiment: Antiangiogenic activity in Leghorn chicken embryo chorioallantoic membrane after 40 hrs by microscopic analysis; type: functional, tissue-based; conditions: Gallus gallus
[17] = tested on: Chorioallantoic membrane; experiment: Potency index, ratio of sunitinib IC50 to test compound IC50 for antiangiogenic activity in Leghorn chicken embryo chorioallantoic membrane; type: functional, tissue-based; conditions: Gallus gallus

| SMILES | EC50 [3] [µM] | IC50 [11] [µM] | IC50 [12] [µM] | IC50 [15] [µM] | IC50 [5] [µM] | IC50 [16] [µM] | also measured |
| --- | --- | --- | --- | --- | --- | --- | --- |
| CC(=O)O[C@H]1C(=O)[C@@]2(C)[C@H]([C@H](OC(=O)c3ccccc3)[C@]3(O)C[C@H](OC(=O)[C@H](O)[C@@H](NC(=O)c4ccccc4)c4ccccc4)C(C)=C1C3(C)C)[C@]1(OC(C)=O)CO[C@@H]1C[C@@H]2O [PACLITAXEL] |  |  |  |  |  |  | IC50 [1]: 0.024 µM; IC50 [2]: 0.005 µM |
| COc1ccc(/C=C\c2cc(OC)c(OC)c(OC)c2)cc1O [COMBRETASTATIN A4] | 0.0098 |  |  |  |  |  |  |
| Cc1coc2ncnc(Nc3ccc([N+](=O)[O-])cc3)c12 | > 10 | > 0.2 | > 0.2 | > 0.2 |  |  |  |
| Cc1coc2ncnc(Nc3ccc(N(C)C)cc3)c12 | > 10 | > 0.2 | > 0.2 | > 0.2 |  |  |  |

Further lines, with some results ahead:

| EC50 [3] [µM] | IC50 [11] [µM] | IC50 [12] [µM] | IC50 [15] [µM] | SMILES | IC50 [5] [µM] | IC50 [16] [µM] | also measured |
| --- | --- | --- | --- | --- | --- | --- | --- |
| 0.14 | 0.063 | 0.0031 | 0.0156 | Cc1coc2ncnc(N(C)c3ccc(N(C)C)cc3)c12 | 0.001 | 0.653 | Ratio IC50 [4]: 1.3; IC50 [6]: 0.044 µM; IC50 [7]: 0.058 µM; IC50 [8]: 1.1 µM; Ratio IC50 [9]: 1; inhibition [10]: 86%; IC50 [1]: 0.06 µM; IC50 [13]: 0.091 µM; inhibition [14]: 59%; IC50 [2]: 0.07 µM |
|  | 0.0573 | 0.283 | 0.0381 | COc1ccc(Nc2ncnc3occ(C)c23)cc1 | 0.292 | 0.445 |  |
|  | 0.0389 | 0.0071 | 0.012 | CCCN(c1ccc(OC)cc1)c1ncnc2occ(C)c12 | 0.0023 | 0.301 | Ratio IC50 [17]: 4 |
| > 10 | > 0.2 | > 0.2 | > 0.2 | Cc1coc2ncnc(N(C)c3ccc([N+](=O)[O-])cc3)c12 | 0.433 | 1.06 |  |
